From ChEMBL document CHEMBL5316329, “Structure-Based Optimization of 2,4,5-Trisubstituted Pyrimidines as Potent HIV-1 Non-Nucleoside Reverse Transcriptase Inhibitors: Exploiting the Tolerant Regions of the Non-Nucleoside Reverse Transcriptase Inhibitors' Binding Pocket” (J Med Chem, 2023)
pEC50, pIC50: −log10 of the molar value.

What was measured:
[1] = system: Human immunodeficiency virus 1; test: Antiviral activity against wild-type HIV-1 IIIB infected in human MT4 cells assessed as virus-induced cytopathicity treated for 5 days by MTT assay; assay type: functional, organism-based; conditions: Human immunodeficiency virus 1, IIIB, MT4, 120 h
[2] = system: Human immunodeficiency virus 1; test: Antiviral activity against NNRTI-resistant HIV-1 RES056 infected in human MT4 cells assessed as virus-induced cytopathicity treated for 5 days by MTT assay; assay type: functional, organism-based; conditions: Human immunodeficiency virus 1, RES056, MT4, 120 h
[3] = Cytotoxicity against human MT4 cells assessed as reduction in cell viability treated for 5 days by MTT assay; assay type: toxicity, cell-based; conditions: time 5 day
[4] = Selectivity index, ratio of CC50 for human MT4 cells to EC50 for wild-type HIV-1 IIIB infected in human MT4 cells; assay type: toxicity, cell-based; conditions: read-out: Selectivity Index
[5] = Selectivity index, ratio of CC50 for human MT4 cells to EC50 for NNRTI-resistant HIV-1 RES056 infected in human MT4 cells; assay type: toxicity, cell-based; conditions: read-out: Selectivity Index
[6] = molecular target: Human immunodeficiency virus type 1 reverse transcriptase (Human immunodeficiency virus 1, UniProt Q72547); test: Inhibition of wild-type HIV-1 reverse transcriptase assessed as inhibition of biotin-dUTP incorporation
[7] = system: Human immunodeficiency virus 1; test: Antiviral activity against HIV-1 harboring L100I mutant infected in human MT4 cells assessed as virus-induced cytopathicity treated for 5 days by MTT assay; assay type: functional, organism-based; conditions: Human immunodeficiency virus 1, MT4, 120 h; for pEC50: read-out: EC50
[8] = system: Human immunodeficiency virus 1; test: Antiviral activity against HIV-1 harboring K103N mutant infected in human MT4 cells assessed as virus-induced cytopathicity treated for 5 days by MTT assay; assay type: functional, organism-based; conditions: Human immunodeficiency virus 1, MT4, 120 h; for pEC50: read-out: EC50
[9] = system: Human immunodeficiency virus 1; test: Antiviral activity against HIV-1 harboring Y181C mutant infected in human MT4 cells assessed as virus-induced cytopathicity treated for 5 days by MTT assay; assay type: functional, organism-based; conditions: Human immunodeficiency virus 1, MT4, 120 h; for pEC50: read-out: EC50
[10] = system: Human immunodeficiency virus 1; test: Antiviral activity against HIV-1 harboring Y188L mutant infected in human MT4 cells assessed as virus-induced cytopathicity treated for 5 days by MTT assay; assay type: functional, organism-based; conditions: Human immunodeficiency virus 1, MT4, 120 h; for pEC50: read-out: EC50
[11] = system: Human immunodeficiency virus 1; test: Antiviral activity against HIV-1 E138K mutant infected in human MT4 cells assessed as virus-induced cytopathicity treated for 5 days by MTT assay; assay type: functional, organism-based; conditions: Human immunodeficiency virus 1, MT4, 120 h; for pEC50: read-out: EC50
[12] = system: Human immunodeficiency virus 1; test: Antiviral activity against HIV-1 F227L/V106A mutant infected in human MT4 cells assessed as virus-induced cytopathicity treated for 5 days by MTT assay; assay type: functional, organism-based; conditions: Human immunodeficiency virus 1, MT4, 120 h; for pEC50: read-out: EC50
[13] = system: Human immunodeficiency virus 1; test: Antiviral activity against HIV-1 harboring K103N/Y181C mutant infected in human MT4 cells assessed as virus-induced cytopathicity treated for 5 days by MTT assay; assay type: functional, organism-based; conditions: Human immunodeficiency virus 1, MT4, 120 h
[14] = molecular target: T1, Cytochrome P450 1A2 (Homo sapiens, UniProt P05177); test: Inhibition of CYP1A2 (unknown origin); assay type: ADME
T1 sequence (P05177 whole entry): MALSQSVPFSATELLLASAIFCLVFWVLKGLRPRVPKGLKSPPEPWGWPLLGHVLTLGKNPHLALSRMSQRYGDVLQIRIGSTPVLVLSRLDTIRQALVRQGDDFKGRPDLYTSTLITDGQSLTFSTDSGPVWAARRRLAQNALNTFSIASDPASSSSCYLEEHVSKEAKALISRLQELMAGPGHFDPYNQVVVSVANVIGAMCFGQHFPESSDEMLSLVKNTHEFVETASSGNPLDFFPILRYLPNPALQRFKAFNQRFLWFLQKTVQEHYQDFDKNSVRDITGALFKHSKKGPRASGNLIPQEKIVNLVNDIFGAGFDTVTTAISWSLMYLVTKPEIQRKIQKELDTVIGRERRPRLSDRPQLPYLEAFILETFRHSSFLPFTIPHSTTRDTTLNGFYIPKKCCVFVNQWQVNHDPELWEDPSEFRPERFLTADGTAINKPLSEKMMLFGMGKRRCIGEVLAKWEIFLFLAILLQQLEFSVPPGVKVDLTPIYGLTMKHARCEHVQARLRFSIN

[15] = molecular target: Cytochrome P450 2C9 (Homo sapiens, UniProt P11712); test: Inhibition of CYP2C9 (unknown origin); assay type: ADME
Chain of Cytochrome P450 2C9 (P11712 whole entry): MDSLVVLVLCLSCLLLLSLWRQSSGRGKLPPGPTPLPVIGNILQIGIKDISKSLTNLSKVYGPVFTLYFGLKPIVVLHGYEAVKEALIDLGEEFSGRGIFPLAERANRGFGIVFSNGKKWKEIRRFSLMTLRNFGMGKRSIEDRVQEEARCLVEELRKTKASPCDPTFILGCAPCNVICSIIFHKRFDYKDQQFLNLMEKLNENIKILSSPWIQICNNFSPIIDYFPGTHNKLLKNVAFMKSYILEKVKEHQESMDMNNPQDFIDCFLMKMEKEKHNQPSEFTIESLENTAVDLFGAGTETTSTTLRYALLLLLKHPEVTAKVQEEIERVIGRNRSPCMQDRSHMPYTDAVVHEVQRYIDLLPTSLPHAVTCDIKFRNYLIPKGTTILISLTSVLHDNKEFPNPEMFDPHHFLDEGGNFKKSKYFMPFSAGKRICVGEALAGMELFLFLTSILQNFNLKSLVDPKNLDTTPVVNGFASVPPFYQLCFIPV

[16] = molecular target: Cytochrome P450 2C19 (Homo sapiens, UniProt P33261); test: Inhibition of CYP2C19 (unknown origin); assay type: ADME
Chain of Cytochrome P450 2C19 (P33261 whole entry): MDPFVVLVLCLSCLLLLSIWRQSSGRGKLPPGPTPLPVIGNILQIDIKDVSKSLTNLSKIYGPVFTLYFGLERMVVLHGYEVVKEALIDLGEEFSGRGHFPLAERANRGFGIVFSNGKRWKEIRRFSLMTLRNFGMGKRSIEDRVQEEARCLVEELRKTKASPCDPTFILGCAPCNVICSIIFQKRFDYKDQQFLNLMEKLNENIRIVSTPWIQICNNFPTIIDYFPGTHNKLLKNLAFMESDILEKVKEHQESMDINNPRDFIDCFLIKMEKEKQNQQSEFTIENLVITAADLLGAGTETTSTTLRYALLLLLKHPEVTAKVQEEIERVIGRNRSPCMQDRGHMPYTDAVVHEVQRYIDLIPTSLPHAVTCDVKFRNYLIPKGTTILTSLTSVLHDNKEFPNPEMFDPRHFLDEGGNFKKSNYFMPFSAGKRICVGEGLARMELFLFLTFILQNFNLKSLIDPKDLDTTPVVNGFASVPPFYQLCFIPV

[17] = molecular target: Cytochrome P450 2D6 (Homo sapiens, UniProt P10635); test: Inhibition of CYP2D6 (unknown origin); assay type: ADME
Chain of Cytochrome P450 2D6 (P10635 whole entry): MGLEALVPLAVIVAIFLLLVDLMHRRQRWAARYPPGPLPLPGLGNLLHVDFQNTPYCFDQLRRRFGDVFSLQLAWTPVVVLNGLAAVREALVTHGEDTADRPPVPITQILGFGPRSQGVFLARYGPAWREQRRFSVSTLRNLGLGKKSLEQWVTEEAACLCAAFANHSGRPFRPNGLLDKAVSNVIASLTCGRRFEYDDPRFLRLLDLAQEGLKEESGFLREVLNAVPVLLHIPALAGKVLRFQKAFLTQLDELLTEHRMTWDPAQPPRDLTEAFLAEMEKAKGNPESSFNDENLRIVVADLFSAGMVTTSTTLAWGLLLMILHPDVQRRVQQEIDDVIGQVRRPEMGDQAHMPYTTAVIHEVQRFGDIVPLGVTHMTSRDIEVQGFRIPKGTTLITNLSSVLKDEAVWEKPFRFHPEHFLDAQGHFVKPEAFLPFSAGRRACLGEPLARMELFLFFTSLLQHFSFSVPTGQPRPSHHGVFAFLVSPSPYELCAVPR

[18] = molecular target: Cytochrome P450 3A4 (Homo sapiens, UniProt P08684); test: Inhibition of CYP3A4 (unknown origin) using midazolam as substrate; assay type: ADME
Chain of Cytochrome P450 3A4 (P08684 whole entry): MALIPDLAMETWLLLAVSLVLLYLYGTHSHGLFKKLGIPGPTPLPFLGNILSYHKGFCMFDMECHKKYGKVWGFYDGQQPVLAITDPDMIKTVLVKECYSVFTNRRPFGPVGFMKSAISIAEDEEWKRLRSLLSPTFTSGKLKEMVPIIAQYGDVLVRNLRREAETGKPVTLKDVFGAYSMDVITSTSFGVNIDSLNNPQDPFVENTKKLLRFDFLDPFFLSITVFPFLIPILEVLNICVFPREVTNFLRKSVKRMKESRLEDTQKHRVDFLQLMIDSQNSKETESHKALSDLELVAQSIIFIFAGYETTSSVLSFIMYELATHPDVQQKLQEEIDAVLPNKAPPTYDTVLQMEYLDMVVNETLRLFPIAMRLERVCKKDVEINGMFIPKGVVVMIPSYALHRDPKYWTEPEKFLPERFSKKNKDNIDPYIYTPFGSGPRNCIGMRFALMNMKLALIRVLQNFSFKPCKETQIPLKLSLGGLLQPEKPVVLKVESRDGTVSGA

[19] = Half life in Sprague-Dawley rat at 2 mg/kg, iv; assay type: ADME, organism-based; conditions: in vivo
[20] = Tmax in Sprague-Dawley rat at 2 mg/kg, iv; assay type: ADME, organism-based; conditions: in vivo
[21] = Cmax in Sprague-Dawley rat at 2 mg/kg, iv; assay type: ADME, organism-based; parameters: dose 2 mg/kg, route iv; conditions: in vivo
[22] = AUC (0 to t) in Sprague-Dawley rat at 2 mg/kg, iv; assay type: ADME, organism-based; parameters: dose 2 mg/kg, route iv; conditions: in vivo
[23] = AUC (0 to infinity) in Sprague-Dawley rat at 2 mg/kg, iv; assay type: ADME, organism-based; parameters: dose 2 mg/kg, route iv; conditions: in vivo
[24] = Clearance in Sprague-Dawley rat at 2 mg/kg, iv; assay type: ADME, organism-based; conditions: in vivo
[25] = Half life in Sprague-Dawley rat at 10 mg/kg, po; assay type: ADME, organism-based; conditions: in vivo
[26] = Tmax in Sprague-Dawley rat at 10 mg/kg, po; assay type: ADME, organism-based; conditions: in vivo
[27] = Cmax in Sprague-Dawley rat at 10 mg/kg, po; assay type: ADME, organism-based; parameters: dose 10 mg/kg, route po; conditions: in vivo
[28] = AUC (0 to t) in Sprague-Dawley rat at 10 mg/kg, po; assay type: ADME, organism-based; parameters: dose 10 mg/kg, route po; conditions: in vivo
[29] = AUC (0 to infinity) in Sprague-Dawley rat at 10 mg/kg, po; assay type: ADME, organism-based; parameters: dose 10 mg/kg, route po; conditions: in vivo
[30] = Oral bioavailability in Sprague-Dawley rat at 10 mg/kg; assay type: ADME, organism-based; conditions: in vivo
[31] = Acute toxicity in Kunming mouse assessed as poisoning symptoms at 2000 mg/kg, po measured after 7 days; assay type: organism-based; conditions: in vivo, 168 h, time 7 day
[32] = Acute toxicity in Kunming mouse assessed as mortality at 2000 mg/kg, po measured after 7 days; assay type: organism-based; conditions: in vivo, 168 h, time 7 day
[33] = Acute toxicity in Kunming mouse assessed as body weight change at 2000 mg/kg, po measured after 7 days; assay type: organism-based; conditions: in vivo, 168 h, time 7 day

Cc1cc(/C=C/C#N)cc(C)c1Cc1nc(NC2CCN(Cc3ccc(C(N)=O)cc3)CC2)ncc1-c1cncnc1
pEC50 [1]: 8.31 | pEC50 [2]: 8.00 | CC50 at 120 h [3]: 22800 nM | selectivity ratio [4]: 4630 | selectivity ratio [5]: 2270 | pEC50 [6]: 8.31 | pIC50 [6]: 6.92 | pEC50 [7]: 8.46 | EC50 ([7]; read-out: pEC50 (converted)): 3.47 nM | pEC50 [8]: 8.32 | EC50 ([8]; read-out: pEC50 (converted)): 4.79 nM | pEC50 [9]: 8.23 | EC50 ([9]; read-out: pEC50 (converted)): 5.89 nM | pEC50 [10]: 7.82 | EC50 ([10]; read-out: pEC50 (converted)): 15.5 nM | pEC50 [11]: 8.02 | EC50 ([11]; read-out: pEC50 (converted)): 9.55 nM | pEC50 [12]: 7.93 | EC50 ([12]; read-out: pEC50 (converted)): 12 nM | pEC50 [13]: 8.00 | pIC50 [14]: < 4.30 | pIC50 [15]: 4.72 | pIC50 [16]: < 4.30 | pIC50 [17]: 4.37 | pIC50 [18]: 4.96 | half-life [19]: 1.33 h | Tmax [20]: 1.98 min | Cmax [21]: 587 ng/mL | AUC(0-t) [22]: 400 ng·h/mL | AUC(0-inf) [23]: 403 ng·h/mL | clearance [24]: 82.7 mL/min/kg | half-life [25]: 1.2 h | Tmax [26]: 2 h | Cmax [27]: 252 ng/mL | AUC(0-t) [28]: 654 ng·h/mL | AUC(0-inf) [29]: 642 ng·h/mL | bioavailability [30]: 31.8% | Activity [31]: Non-Toxic | Activity [32]: Non-Toxic | Activity [33]: Non-Toxic

Cc1cc(/C=C/C#N)cc(C)c1Oc1nc(NC2CCN(Cc3ccc(S(N)(=O)=O)cc3)CC2)ncc1-c1ccc(N)cc1
pEC50 [1]: 8.44 | pEC50 [2]: 7.63 | CC50 at 120 h [3]: 3810 nM | selectivity ratio [4]: 1050 | selectivity ratio [5]: 185 | pIC50 [6]: 7.01 | pEC50 [7]: 8.49 | pEC50 [8]: 8.41 | pEC50 [9]: 8.27 | pEC50 [10]: 7.60 | pEC50 [11]: 8.05 | pEC50 [12]: 8.04

Cc1cc(/C=C/C#N)cc(C)c1Oc1nc(NC2CCN(Cc3ccc(S(N)(=O)=O)cc3)CC2)ncc1-c1ccc(O)cc1
pEC50 [1]: 8.42 | pEC50 [2]: 7.58 | CC50 at 120 h [3]: 4440 nM | selectivity ratio [4]: 1160 | selectivity ratio [5]: 170 | pIC50 [6]: 7.04 | pEC50 [7]: 8.43 | pEC50 [8]: 8.38 | pEC50 [9]: 8.11 | pEC50 [10]: 7.50 | pEC50 [11]: 8.12 | pEC50 [12]: 7.90

Cc1cc(/C=C/C#N)cc(C)c1Oc1nc(NC2CCN(Cc3ccc(C(N)=O)cc3)CC2)ncc1-c1ccc(N)cc1
pEC50 [1]: 8.47 | pEC50 [2]: 7.72 | CC50 at 120 h [3]: 3910 nM | selectivity ratio [4]: 1140 | selectivity ratio [5]: 207 | pIC50 [6]: 6.97 | pEC50 [7]: 8.48 | pEC50 [8]: 8.45 | pEC50 [9]: 8.32 | pEC50 [10]: 7.64 | pEC50 [11]: 8.30 | pEC50 [12]: 8.04

Cc1cc(/C=C/C#N)cc(C)c1Cc1nc(NC2CCN(Cc3ccc(S(C)(=O)=O)cc3)CC2)ncc1-c1cncnc1
pEC50 [1]: 8.44 | pEC50 [2]: 7.85 | CC50 at 120 h [3]: 2900 nM | selectivity ratio [4]: 796 | selectivity ratio [5]: 207 | pIC50 [6]: 6.98 | pEC50 [7]: 8.50 | pEC50 [8]: 8.44 | pEC50 [9]: 8.26 | pEC50 [10]: 7.66 | pEC50 [11]: 8.23 | pEC50 [12]: 8.04 | pIC50 [14]: < 4.30 | pIC50 [15]: 5.02 | pIC50 [16]: < 4.30 | pIC50 [17]: 4.59 | pIC50 [18]: 5.18

Cc1cc(/C=C/C#N)cc(C)c1Oc1nc(NC2CCN(Cc3ccc(S(C)(=O)=O)cc3)CC2)ncc1-c1ccc(N)cc1
pEC50 [1]: 8.35 | pEC50 [2]: 7.47 | CC50 at 120 h [3]: 6740 nM | selectivity ratio [4]: 1510 | selectivity ratio [5]: 198 | pIC50 [6]: 6.80 | pEC50 [7]: 8.33 | pEC50 [8]: 8.31 | pEC50 [9]: 8.09 | pEC50 [10]: 7.48 | pEC50 [11]: 8.13 | pEC50 [12]: 8.11

Cc1cc(/C=C/C#N)cc(C)c1Oc1nc(NC2CCN(Cc3ccc(C(N)=O)cc3)CC2)ncc1-c1cccc(N)c1
pEC50 [1]: 8.25 | pEC50 [2]: 7.65 | CC50 at 120 h [3]: 8370 nM | selectivity ratio [4]: 1480 | selectivity ratio [5]: 373 | pIC50 [6]: 6.86 | pEC50 [7]: 7.96 | pEC50 [8]: 8.25 | pEC50 [9]: 8.00 | pEC50 [10]: 7.29 | pEC50 [11]: 8.04 | pEC50 [12]: 7.78
